Laboratory results taken from US20180296630A1, “METHODS AND COMPOSITIONS FOR PREVENTING OR TREATING OPHTHALMIC CONDITIONS” (Stealth BioTherapeutics Corp, priority 2012, published 2018).

Experiments:
[1] = tested on: caspase-3 in HRECs; assay: Caspase-3 protein expression in high glucose-treated HRECs (Western blot); assay type: cell-based, human; details: 30 mM glucose co-treatment; 24 h and 48 h; p<0.05
Method: The level of cleaved caspase-3 protein expression was measured by Western blot (FIG. 5A). When HRECs were exposed to 30 mM glucose for 24 h and 48 h, the level of caspase-3 expression increased dramatically.

[2] = tested on: GTM cells; assay: TMRM fluorescence (mitochondrial membrane potential), acute H2O2 injury, FACS, GTM cells; assay type: cell-based, human; details: n=4
Excerpt: Methods to measure mitochondrial membrane potential using TMRM useful in the studies of the present invention have been described by Andrea Rasola and Massimo Geuna, A flow cytometry assay simultaneously detects independent apoptotic parameters, Cytometry 45:151-157, 2001; Mitoprobe™ JC-1 Kit for Flow Cytometry, Molecular Probes, Invitrogen, USA.
The mitochondrial membrane potential (Δψm) of HTM and GTM cells was investigated when those cells were exposed to hydrogen peroxide prior to administration of D-Arg-2′,6′-Dmt-Lys-Phe-NH2. First, the mitochondrial membrane potential was measured using confocal microscopy of cells labeled with tetramethylrhodamine methyl ester (TMRM, 500 nM×30 min) (FIG. 15). The mitochondrial membrane potential was also measured using flow cytometry (FIGS. 16-17) by labeling cells with the mitochondrion-selective probe tetramethylrhodamine methyl ester (TMRM, 500 nM×30 min).
The effects of D-Arg-2′,6′-Dmt-Lys-Phe-NH2 at mitigating acute oxidative injury in GTM and HTM cells was investigated. […] The percentage of fluorescence intensity compared to GTM control in H2O2, D-Arg-2′,6′-Dmt-Lys-Phe-NH2 10^−6M, D-Arg-2′,6′-Dmt-Lys-Phe-NH2 10^−7M, D-Arg-2′,6′-Dmt-Lys-Phe-NH2 10^−8M were 35.2±2.12%, 56.2±4.04%, 50.3±4.46%, 47.5±2.82% respectively, n=4; the HTM groups were 37.4±0.725%, 57.7±1.80%, 50.6±3.06%, 49.4±2.27% respectively, n=4. ** means P<0.01 compared to GTM H2O2 group; * means P<0.05 compared to GTM H2O2 group; ▴ ▴ ▴ means P<0.001 compared to HTM H2O2 group.

[3] = tested on: primary human retinal pigment epithelial (RPE) cells; assay: MMP of RPE cells exposed to tBHP (JC-1, FACS); assay type: cell-based
Method: Next, the viability of primary RPE cells was tested in the presence of tBHP and various concentrations of D-Arg-2′,6′-Dmt-Lys-Phe-NH2. Cells were plated at 10,000 cells per well in a 96-well plate and cultured for 24 h, then starved for 24 h. After that, cells were exposed to increasing concentrations of tBHP (FIG. 23A), or preincubated for 4 h with different concentrations of D-Arg-2′,6′-Dmt-Lys-Phe-NH2, then stimulated with tBHP for 6 h (FIG. 23B). […] Intracellular ROS production in three groups of RPE cells was also examined using FACS analysis. […] Three different concentration of D-Arg-2′,6′-Dmt-Lys-Phe-NH2 groups were analyzed. The ratio of red to green in 500 μM tBHP for the 3 h group is 1.08, the ratio of red to green in 10 nM D-Arg-2′,6′-Dmt-Lys-Phe-NH2 for 4 h+500 tBHP for 3 h group is 1.25; the ratio of red to green in 100 nM D-Arg-2′,6′-Dmt-Lys-Phe-NH2 for 4 hr+500 μM tBHP for 3 h group is 1.4; and the ratio of red to green in 1 μM D-Arg-2′,6′-Dmt-Lys-Phe-NH2 for 4 h+500 μM tBHP for 3 h group is […]. […] FIG. 33A: Control group, R/G is 3.63±0.24; FIG. 33B: 500 μM tBHP for 3 h group, R/G is 1.08±0.11; FIG. 33C: 1 μM D-Arg-2′,6′-Dmt-Lys-Phe-NH2 for 4 h+500 μM tBHP for 3 h group, R/G is 2.38±0.18. FIG. 33D is a chart comparing the fluorescence ratio for the different groups. *P<0.01, C vs. B.

[4] = tested on: GTM and HTM cells; assay: Oxidative stress induced by hydrogen peroxide in GTM and HTM cells (collective conclusion); assay type: cell-based, human
Method: The cells were divided into three groups: “Group A” cells were exposed to hydrogen peroxide prior to administration of D-Arg-2′,6′-Dmt-Lys-Phe-NH2. “Group B” cells were exposed to D-Arg-2′,6′-Dmt-Lys-Phe-NH2 prior to administration of hydrogen peroxide. “Group C” cells were administered D-Arg-2′,6′-Dmt-Lys-Phe-NH2 and hydrogen peroxide simultaneously.
The effects of D-Arg-2′,6′-Dmt-Lys-Phe-NH2 on sustained oxidative injury of GTM and HTM cells was examined. Cells were pre-treated with 10^−6, 10^−7, 10^−8M of D-Arg-2′,6′-Dmt-Lys-Phe-NH2 for 1 h, and then incubated with 200 μM H2O2 for 24 h to investigate the protective effect of D-Arg-2′,6′-Dmt-Lys-Phe-NH2 in sustained oxidative stress.

[5] = tested on: 661W cells; assay: tBHP-induced death of 661W cone cells; assay type: cell-based, mouse; details: different doses
Method: A cone cell specific line 661W was derived from a mouse retinal tumor. Methods useful in the present studies of 661W cells have been described previously. See generally, Gearóid Tuohy, Sophia Millington-Ward, Paul F. Kenna, Peter Humphries and G. Jane Farrar, Sensitivity of Photoreceptor-Derived Cell Line (661W) to Baculoviral p35, Z-VAD.FMK, and Fas-Associated Death Domain, Investigative Ophthalmology and Visual Science. 2002; 43:3583-3589. These cells were cultured to test the effects of the aromatic-cationic peptides of the invention in preventing or reducing oxidative damage in the cone cells (FIG. 27). First, it was shown that tBHP affected survival of 661W cells (FIG. 27A). Different doses of tBHP were administered to the cells for 3 h. Next, it was shown that different doses of D-Arg-2′,6′-Dmt-Lys-Phe-NH2 reduced tBHP-induced 661W cell death (FIG. 27B).

D-Arg-2′,6′-Dmt-Lys-Phe-NH2
caspase-3 protein level [1]: marked decrease
percentage of TMRM fluorescence intensity compared to GTM control ([2]; 10^−6M): 56.2±4.04%
percentage of TMRM fluorescence intensity compared to GTM control ([2]; 10^−7M): 50.3±4.46%
percentage of TMRM fluorescence intensity compared to GTM control ([2]; 10^−8M): 47.5±2.82%
ratio of red to green (JC-1) ([3]; 10 nM for 4 h + 500 tBHP for 3 h (FIG. 32)): 1.25
ratio of red to green (JC-1) ([3]; 100 nM for 4 hr + 500 μM tBHP for 3 h (FIG. 32)): 1.4
ratio of red to green (JC-1) ([3]; 1 μM for 4 h + 500 μM tBHP for 3 h (FIG. 32)): 2.28
R/G (JC-1) ([3]; 1 μM for 4 h + 500 μM tBHP for 3 h (FIG. 33C)): 2.38±0.18
concentration at which sustained and acute oxidative stress induced by hydrogen peroxide can be prevented [4]: > 10^−9 M
tBHP-induced 661W cell death [5]: reduced
